From ChEMBL document CHEMBL3997776, “Oxime Ethers of (E)-11-Isonitrosostrychnine as Highly Potent Glycine Receptor Antagonists” (J Nat Prod, 2016)
Substitutions are numbered along the chain they refer to.

Experiments:
[1] = target: T1, Glycine receptor (alpha-1/beta) (Homo sapiens, UniProt P23415+P48167); experiment: Antagonist activity at recombinant human glycine receptor alpha 1 beta expressed in human tsA201 cells assessed as inhibition of glycine-induced receptor activation after 30 mins by FLIPR membrane potential blue assay; format: cell-based
T1 sequence (P48167 whole entry, one chain of several): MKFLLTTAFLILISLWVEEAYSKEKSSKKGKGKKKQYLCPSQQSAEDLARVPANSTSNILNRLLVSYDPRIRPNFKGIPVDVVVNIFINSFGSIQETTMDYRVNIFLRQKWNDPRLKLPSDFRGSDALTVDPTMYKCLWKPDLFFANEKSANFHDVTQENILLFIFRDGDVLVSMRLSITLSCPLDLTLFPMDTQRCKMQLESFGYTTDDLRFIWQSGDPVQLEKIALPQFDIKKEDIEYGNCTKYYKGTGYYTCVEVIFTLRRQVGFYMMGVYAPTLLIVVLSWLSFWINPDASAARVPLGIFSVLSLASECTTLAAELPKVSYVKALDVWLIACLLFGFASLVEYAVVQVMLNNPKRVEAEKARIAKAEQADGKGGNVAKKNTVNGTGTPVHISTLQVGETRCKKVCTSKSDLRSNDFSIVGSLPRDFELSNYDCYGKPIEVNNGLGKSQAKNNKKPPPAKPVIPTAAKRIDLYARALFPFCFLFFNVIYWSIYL

[2] = target: T2, Glycine receptor subunit alpha-1 (Homo sapiens, UniProt P23415); experiment: Antagonist activity at recombinant human glycine receptor alpha 1 expressed in human tsA201 cells assessed as inhibition of glycine-induced receptor activation after 30 mins by FLIPR membrane potential blue assay; format: cell-based
T2 sequence (P23415 whole entry): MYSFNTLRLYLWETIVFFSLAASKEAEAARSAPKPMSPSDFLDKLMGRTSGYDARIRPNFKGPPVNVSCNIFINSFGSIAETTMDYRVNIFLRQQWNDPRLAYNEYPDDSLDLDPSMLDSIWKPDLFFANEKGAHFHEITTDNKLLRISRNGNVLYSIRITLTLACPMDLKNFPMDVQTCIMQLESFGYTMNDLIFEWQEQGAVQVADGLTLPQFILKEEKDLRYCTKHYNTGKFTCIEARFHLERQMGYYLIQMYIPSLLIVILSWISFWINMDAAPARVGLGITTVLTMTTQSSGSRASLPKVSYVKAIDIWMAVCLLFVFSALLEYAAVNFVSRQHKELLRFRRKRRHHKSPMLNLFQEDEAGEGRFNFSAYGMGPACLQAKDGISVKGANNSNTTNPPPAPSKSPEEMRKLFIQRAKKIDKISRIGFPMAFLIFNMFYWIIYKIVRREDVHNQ

[3] = target: T2, Glycine receptor subunit alpha-1; experiment: Antagonist activity at recombinant human glycine receptor alpha 1 expressed in HEK293 cells assessed as inhibition of glycine-induced current at -50 mV holding potential by whole cell patch-clamp method; format: cell-based
[4] = target: T2, Glycine receptor subunit alpha-1; experiment: Displacement of [3H]strychnine from recombinant human glycine receptor alpha 1 expressed in HEK293 cell membranes after 30 mins by liquid scintillation counting method
[5] = target: T1, Glycine receptor (alpha-1/beta); experiment: Antagonist activity at recombinant human glycine receptor alpha 1 beta expressed in HEK293 cells assessed as inhibition of glycine-induced current at -50mV holding potential by whole cell patch-clamp method; format: cell-based
[6] = target: T3, Glycine receptor subunit alpha-1 (Rattus norvegicus, UniProt P07727)
T3 sequence (P07727 whole entry): T2 sequence (P23415 whole entry) with L9F, E27D, E362D, A365G, S396N, P402A, Q457K
Description: Displacement of [3H]strychnine from glycine receptor alpha 1 in rat brain synaptic membranes

Homo sapiens = species on record: Homo sapiens; experiment: Selectivity ratio of IC50 for recombinant human glycine receptor alpha 1 beta expressed in human tsA201 cells to IC50 for recombinant human glycine receptor alpha 1 expressed in human tsA201 cells; format: cell-based

Structure (SMILES)	IC50 [1]	IC50 ([2]; read-out: IC50)	IC50 [3]	Ki [4]	IC50 [5]	IC50 ([2]; read-out: pIC50 (converted))	Ki [6]	Ratio IC50 (Homo sapiens)
COC(=O)CCCCO/N=C1/C(=O)N2c3ccccc3[C@@]34CCN5CC6=CCO[C@@H]1[C@@H]([C@H]23)[C@H]6C[C@H]54	1500 nM	720 nM	–	–	–	–	–	–
C=CCO/N=C1/C(=O)N2c3ccccc3[C@@]34CCN5CC6=CCO[C@@H]1[C@@H]([C@H]23)[C@H]6C[C@H]54	150 nM	95 nM	49 nM	370 nM	46 nM	–	–	–
CCCCO/N=C1/C(=O)N2c3ccccc3[C@@]34CCN5CC6=CCO[C@@H]1[C@@H]([C@H]23)[C@H]6C[C@H]54	880 nM	370 nM	–	–	–	380 nM	–	–
O=C1/C(=N/OCCc2ccccc2)[C@@H]2OCC=C3CN4CC[C@]56c7ccccc7N1[C@H]5[C@H]2[C@H]3C[C@H]46	780 nM	690 nM	–	–	–	708 nM	–	–
O=C1C[C@@]23c4ccccc4N4C(=O)C[C@@H]5OCC=C6CN1[C@H]2C[C@@H]6[C@@H]5[C@H]43	9800 nM	6900 nM	–	–	–	–	–	–
Nc1ccc2c(c1)[C@@]13CCN4CC5=CCO[C@H]6CC(=O)N2[C@H]1[C@H]6[C@H]5C[C@H]43	270 nM	77 nM	76 nM	–	97 nM	–	18 nM	3 to 4
CCC[N+]12CC[C@@]34c5ccccc5N5C(=O)C[C@@H]6OCC=C(C1)[C@H](C[C@@H]32)[C@@H]6[C@H]54 (stereo partly specified)	13000 nM	10000 nM	4590 nM	–	6530 nM	–	–	–
CCCO/N=C1/C(=O)N2c3ccccc3[C@@]34CCN5CC6=CCO[C@@H]1[C@@H]([C@H]23)[C@H]6C[C@H]54	350 nM	110 nM	109 nM	241 nM	116 nM	–	–	3 to 4
CCC(=O)Nc1ccc2c(c1)[C@@]13CCN4CC5=CCO[C@H]6CC(=O)N2[C@H]1[C@H]6[C@H]5C[C@H]43	940 nM	540 nM	201 nM	67 nM	311 nM	–	–	–
COC(=O)CO/N=C1/C(=O)N2c3ccccc3[C@@]34CCN5CC6=CCO[C@@H]1[C@@H]([C@H]23)[C@H]6C[C@H]54	670 nM	220 nM	–	–	–	–	–	–
C#CCO/N=C1/C(=O)N2c3ccccc3[C@@]34CCN5CC6=CCO[C@@H]1[C@@H]([C@H]23)[C@H]6C[C@H]54	240 nM	52 nM	59 nM	–	43 nM	–	–	–
CO/N=C1/C(=O)N2c3ccccc3[C@@]34CCN5CC6=CCO[C@@H]1[C@@H]([C@H]23)[C@H]6C[C@H]54	210 nM	100 nM	75 nM	189 nM	56 nM	–	–	–
CC(C)CO/N=C1/C(=O)N2c3ccccc3[C@@]34CCN5CC6=CCO[C@@H]1[C@@H]([C@H]23)[C@H]6C[C@H]54	1100 nM	260 nM	–	–	–	–	–	3 to 4
CCCCCO/N=C1/C(=O)N2c3ccccc3[C@@]34CCN5CC6=CCO[C@@H]1[C@@H]([C@H]23)[C@H]6C[C@H]54	710 nM	250 nM	–	–	–	–	–	3 to 4
O=C1C[C@@H]2OCC=C3CN4CC[C@]56c7ccccc7N1[C@H]5[C@H]2[C@H]3C[C@H]46 [STRYCHNINE]	180 nM	93 nM	51 nM	23 nM	58 nM	–	12 nM	–
O=C1/C(=N/OCc2ccccc2)[C@@H]2OCC=C3CN4CC[C@]56c7ccccc7N1[C@H]5[C@H]2[C@H]3C[C@H]46	310 nM	170 nM	–	–	–	–	–	–
